{
  "source": "patent US8889591B2",
  "about": "“Herbicidal compositions comprising 4-amino-3-chloro-5-fluoro-6-(4-chloro-2-fluoro-3-methoxyphenyl)pyridine-2-carboxylic acid or a derivative thereof and bromobutide, daimuron, oxaziclomefone or pyributicarb” (Dow Agrosciences LLC, priority 2012, dated 2014)",
  "tested_on": "FIMMI",
  "experiment": "In-water applied greenhouse weed control, transplanted paddy rice system",
  "assay_type": "in vivo, Fimbristylis miliacea (L.) Vahl",
  "conditions": "in-water application",
  "description": "Weed seeds or nutlets of the desired test plant species were planted in puddled soil (mud) prepared by mixing a shredded, non-sterilized mineral soil (50.5 percent silt, 25.5 percent clay, and 24 percent sand, with a pH of about 7.6 and an organic matter content of about 2.9 percent) and water at a 1:1 volumetric ratio. The prepared mud was dispensed in 365 mL aliquots into 16-ounce (oz.) non-perforated plastic pots with a surface area of 86.59 square centimeters (cm^2) leaving a headspace of 3 centimeters (cm) in each pot. Mud was allowed to dry overnight prior to planting or transplanting. Rice seeds were planted in Sun Gro MetroMix® 306 planting mixture, which typically has a pH of 6.0 to 6.8 and an organic matter content of about 30 percent, in plastic plug trays. Seedlings at the second or third leaf stage of growth were transplanted into 840 mL of mud contained in 32-oz. non-perforated plastic pots with a surface area of 86.59 cm^2 4 days prior to herbicide application. The paddy was created by filling the headspace of the pots with 2.5 to 3 cm of water. When required to ensure good germination and healthy plants, a fungicide treatment and/or other chemical or physical treatment was applied. The plants were grown for 4-22 days in a greenhouse with an approximate 14 h photoperiod which was maintained at about 29° C. during the day and 26° C. during the night. Nutrients were added as Osmocote® (19:6:12, N:P:K+ minor nutrients) at 2 g per 16-oz. pot and 4 g per 32-oz. pot. Water was added on a regular basis to maintain the paddy flood, and supplemental lighting was provided with overhead metal halide 1000-Watt lamps as necessary. The plants were employed for testing when they reached the first through fourth true leaf stage.\nTreatments consisted of the acid or esters of 4-amino-3-chloro-5-fluoro-6-(4-chloro-2-fluoro-3-methoxy-phenyl)pyridine-2-carboxylic acid (compound A) each formulated as an SC and various herbicidal components alone and in combination. Forms of compound A were applied on an acid equivalent basis.\nOther herbicidal components were applied on an active ingredient basis and included daimuron formulated as an EC, bromobutide (technical grade material), and oxaziclomefone (technical grade material).\nTreatment requirements for each compound or herbicidal component were calculated based upon the rates being tested, the concentration of active ingredient or acid equivalent in the formulation, an application volume of 2 mL per component per pot, and an application area of 86.59 cm^2 per pot.\nFor formulated compounds, a measured amount was placed in an individual 100 or 200 mL glass vial and was dissolved in a volume of 1.25% (v/v) Agri-Dex® crop oil concentrate to obtain application solutions.\nFor technical grade compounds, a weighed amount was placed in an individual 100 to 200 mL glass vial and was dissolved in a volume of acetone to obtain concentrated stock solutions. […] The concentrated stock solutions obtained were diluted with an equivalent volume of an aqueous mixture containing 2.5% (v/v) crop oil concentrate so that the final application solutions contained 1.25% (v/v) crop oil concentrate.\nApplications were made by injecting, with a pipetter, appropriate amounts of the application solutions, individually and sequentially, into the aqueous layer of the paddy. Control plants were treated in the same manner with the solvent blank. Applications were made so that all treated plant material received the same concentrations of acetone and crop oil concentrate.\nThe treated plants and control plants were placed in a greenhouse as described above and water was added as needed to maintain a paddy flood. After approximately 3 weeks the condition of the test plants as compared with that of the untreated plants was determined visually and scored on a scale of 0 to 100 percent where 0 corresponds to no injury or growth inhibition and 100 corresponds to complete kill. […]",
  "key": {"[1]": {"conditions": "Compound A Benzyl Ester 8 gae/ha alone"}, "[2]": {"conditions": "Compound A Benzyl Ester 16 gae/ha alone"}},
  "data": [
    {"smiles": "COc1c(Cl)ccc(-c2nc(C(=O)OCc3ccccc3)c(Cl)c(N)c2F)c1F", "note": "[Compound A Benzyl Ester]", "values": [
      {"measurement": "Visual Weed Control (%) - 19 DAA FIMMI Obs", "setting": "[1]", "value": 0, "unit": "%"},
      {"measurement": "Visual Weed Control (%) - 21 DAA FIMMI Obs", "setting": "[1]", "value": 15, "unit": "%"},
      {"measurement": "Visual Weed Control (%) - 19 DAA FIMMI Obs", "setting": "[2]", "value": 0, "unit": "%"},
      {"measurement": "Visual Weed Control (%) - 21 DAA FIMMI Obs", "setting": "[2]", "value": 65, "unit": "%"},
      {"measurement": "Visual Weed Control (%) - 21 DAA FIMMI Obs", "setting": "Compound A Benzyl Ester 32 gae/ha alone", "value": 75, "unit": "%"}
    ]}
  ]
}
